Source: patent US20050241940A1, “Fast perfusion system and patch clamp technique utilizing an interface chamber system having high throughput and low volume requirements” (Wyeth, priority 2004, published 2005)

System: outward potassium currents in DRG neurons
Experiment: Whole cell patch clamp recording of outward potassium currents in DRG neurons using the interface chamber
Type: cell-based
Description: The current across a patch clamp measuring electrode and cell versus time is shown. Whole cell recording measurements were obtained via conventional methods. The interface chamber was moved to surround the cell as in steps 101-103 above. A measurement of current was recorded while the cell was in a well containing a normal saline (control) solution. The cell was then moved from normal saline to a well containing increasing concentrations (from 0 to 10 mM in increasing increments) of the K^+ channel blocker 4-AP. For each of the measurements, cells were held at −50 mV, stepped with a prepulse to −100 mV for 400 ms and then stepped for the test to +40 mV. After the test pulse, cells were repolarized to −60 mV. Sweeps were obtained every 10 sec, and 5 sweeps were obtained per well. The interface was moved from one well to the next in a short time, such as 2 seconds.
Outward currents due to K^+ flow from the cell is shown. […] The lower current is consistent with the expected blocking effected of the 4-AP. Both the peak current (the spike at the left of graph of each measurement) and the end current (final value of current for each measurement) decreased as the concentration of 4-AP increased.
FIG. 8 illustrates a graph showing the peak current of a fractional block versus the concentration of a test substance according to one example of the invention. […] The dose response curve shown illustrates the ability of this system to measure multiple concentrations of test substance accurately.

[1] = highest concentration tested (10 mM)

With `Nc1ccncc1` [4-AP] the “end current (final value of current for each measurement)” value (as the concentration of 4-AP increased (0 to 10 mM)) was “decreased”, the peak current (as the concentration of 4-AP increased (0 to 10 mM), FIG. 7, shown as fractional block in FIG. 8) was “the peak current decreased as the concentration of 4-AP increased” and the inactivating current remaining [1] was “no inactivating current remains”. For the same compound, the “non-inactivating (persistent) current remaining” value [1] was “significant non-inactivating (persistent) current persists” and the “current across the cell membrane (outward K+ current)” value (whole cell, increasing 4-AP concentrations from 0 to 10 mM, test pulse to +40 mV) was “decreased the current across the cell membrane”.
